# Measurements as given in patent US12678434B2, “Compositions and methods for modulating ACE2 receptor” (priority 2020, dated 2026).
# “Also recorded” adds a separate entry of the source.
# Legend:
# SARS-CoV-2 = assay: Medication use in COVID-19 positive and negative patients (retrospective propensity-score-matched study of hospitalized patients); type: in vivo, human; settings: for SARS-CoV-2 Positive Test Result, percentage of patients (infection rate): drug use group of PS-matched sample, hospitalized patients Jan. 1, 2020 to Dec. 30, 2020; for difference in SARS-CoV-2 infection rates between drug use and no drug use: PS-matched groups, significance defined as p<0.05
# Human recombinant ACE2 = biological target: T1, Human recombinant ACE2 (Homo sapiens, UniProt Q9BYF1); type: biochemical
# T1 construct: purchased R&D systems, Minneapolis, USA
# T1 sequence (Q9BYF1 18-740 limits assumed): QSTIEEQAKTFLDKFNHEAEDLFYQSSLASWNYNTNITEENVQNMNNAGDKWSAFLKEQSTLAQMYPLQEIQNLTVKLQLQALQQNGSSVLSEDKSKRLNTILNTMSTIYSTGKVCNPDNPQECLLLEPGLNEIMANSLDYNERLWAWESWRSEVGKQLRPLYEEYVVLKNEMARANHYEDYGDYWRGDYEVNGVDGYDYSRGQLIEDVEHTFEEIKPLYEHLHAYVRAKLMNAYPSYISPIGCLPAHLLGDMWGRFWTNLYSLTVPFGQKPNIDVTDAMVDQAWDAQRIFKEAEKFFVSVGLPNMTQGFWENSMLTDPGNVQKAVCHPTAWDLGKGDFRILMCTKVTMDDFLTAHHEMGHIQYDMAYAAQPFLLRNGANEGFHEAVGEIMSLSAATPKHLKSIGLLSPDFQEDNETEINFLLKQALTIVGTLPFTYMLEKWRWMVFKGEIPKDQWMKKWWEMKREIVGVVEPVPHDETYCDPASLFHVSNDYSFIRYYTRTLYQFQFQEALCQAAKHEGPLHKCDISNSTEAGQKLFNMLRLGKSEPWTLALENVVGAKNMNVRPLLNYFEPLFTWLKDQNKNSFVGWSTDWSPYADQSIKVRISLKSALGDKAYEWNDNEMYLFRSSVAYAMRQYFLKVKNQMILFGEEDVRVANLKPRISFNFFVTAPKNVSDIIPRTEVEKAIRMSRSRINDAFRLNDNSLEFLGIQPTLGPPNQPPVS
# VERO-E6 cells = type: cell-based, monkey; settings: 100 μM drug for 6 hours without FBS, then spike protein (30 ug) for 12 hours
# [1] = SARS-CoV-2 positive patients, drug use group, PS-matched
# [2] = patients who tested positive in PS-matched sample
structure (smiles),measurement,setting,value
CN1CCC(=C2c3ccccc3CC(=O)c3sccc32)CC1 [Ketotifen],"SARS-CoV-2 Positive Test Result, percentage of patients (infection rate)",SARS-CoV-2,0 (0%)
O=C(O)COCCN1CCN(C(c2ccccc2)c2ccc(Cl)cc2)CC1 (centres unmarked) [Cetirizine],"SARS-CoV-2 Positive Test Result, percentage of patients (infection rate)",SARS-CoV-2,17.97%
CN(C)CCC(c1ccc(Cl)cc1)c1ccccn1 (centres unmarked) [Chlorpheniramine],"SARS-CoV-2 Positive Test Result, percentage of patients (infection rate)",SARS-CoV-2,16.67%
CN(C)CCOC(c1ccccc1)c1ccccc1 [Diphenhydramine],"SARS-CoV-2 Positive Test Result, percentage of patients (infection rate)",SARS-CoV-2,12.8%
same,concentration at transition point from inhibiting to activating the ACE2 receptor,Human recombinant ACE2,1 µM
same,spike protein in the cell lysate (western blot),VERO-E6 cells,no spike protein
CC(C)(C(=O)O)c1ccc(C(O)CCCN2CCC(C(O)(c3ccccc3)c3ccccc3)CC2)cc1 (centres unmarked) [Fexofenadine],"SARS-CoV-2 Positive Test Result, percentage of patients (infection rate)",SARS-CoV-2,18.92%
CN(C)CCC(c1ccc(Br)cc1)c1ccccn1 (centres unmarked) [Brompheniramine],"SARS-CoV-2 Positive Test Result, percentage of patients (infection rate)",SARS-CoV-2,33.33%
CN1CCCC(n2nc(Cc3ccc(Cl)cc3)c3ccccc3c2=O)CC1 (centres unmarked) [Azelastine],"SARS-CoV-2 Positive Test Result, percentage of patients (infection rate)",SARS-CoV-2,7.69%
CN1CCC[C@@H](n2nc(Cc3ccc(Cl)cc3)c3ccccc3c2=O)CC1 [R-Azelastine],concentration at transition point from inhibiting to activating the ACE2 receptor,Human recombinant ACE2,1 µM
same,spike protein in the cell lysate (western blot),VERO-E6 cells,no spike protein
CN(C)CC/C=C1/c2ccccc2COc2ccc(CC(=O)O)cc21 [Olopatadine],"SARS-CoV-2 Positive Test Result, percentage of patients (infection rate)",SARS-CoV-2,18.75%
NC(N)=Nc1nc(CSCCC(N)=NS(N)(=O)=O)cs1 [Famotidine],"SARS-CoV-2 Positive Test Result, percentage of patients (infection rate)",SARS-CoV-2,18.87%
CN1CCC[C@H](n2nc(Cc3ccc(Cl)cc3)c3ccccc3c2=O)CC1 [S-Azelastine],concentration at transition point from inhibiting to activating the ACE2 receptor,Human recombinant ACE2,1 µM
CNC(=C[N+](=O)[O-])NCCSCc1ccc(CN(C)C)o1 [Ranitidine],"SARS-CoV-2 Positive Test Result, percentage of patients (infection rate)",SARS-CoV-2,15.29%
CCOC(=O)N1CCC(=C2c3ccc(Cl)cc3CCc3cccnc32)CC1 [Loratadine],"SARS-CoV-2 Positive Test Result, percentage of patients (infection rate)",SARS-CoV-2,18.65%
"O=C(O)COCCN1CCN([C@@H](c2ccccc2)c2ccc(Cl)cc2)CC1 [S-Cetirizine, dextrocetirizine]",fluorescence signal (ACE2 activity) upon further addition of drug,Human recombinant ACE2,further decreased
OCCOCCN1CCN(C(c2ccccc2)c2ccc(Cl)cc2)CC1 (centres unmarked) [Hydroxyzine],difference in SARS-CoV-2 infection rates between drug use and no drug use,SARS-CoV-2,statistically significantly different
same,difference in SARS-CoV-2 infection rates between drug use and no drug use,SARS-CoV-2; listed as hydroxyzine,significant difference; also recorded: lower infection rates
same,"ICU Admission, number of patients",SARS-CoV-2; [1],5
same,"ICU Admission, percentage of patients",SARS-CoV-2; [1],19.23%
same,"ICU LOS (length of stay), mean (standard deviation)",SARS-CoV-2; [1],22.4 (26.43)
same,"SARS-CoV-2 Positive Test Result, percentage of patients (infection rate)",SARS-CoV-2,12.62%
same,Odds Ratio for SARS-CoV-2 infection,"SARS-CoV-2; multiple logistic regression model, drug use as covariate, PS-matched sample",0.919
same,difference in ICU admission rates between drug use and no drug use,SARS-CoV-2; [2],not a significant difference
same,difference in ICU length of stay between drug use and no drug use,SARS-CoV-2; [2],not a significant difference
same,fluorescence signal (ACE2 activity) upon further addition of drug,Human recombinant ACE2,increased
same,spike protein in the cell lysate (western blot),VERO-E6 cells,no spike protein
CN/C(=N/CCSCc1nc[nH]c1C)NC#N [Cimetidine],"SARS-CoV-2 Positive Test Result, percentage of patients (infection rate)",SARS-CoV-2,35.71%
"O=C(O)COCCN1CCN([C@H](c2ccccc2)c2ccc(Cl)cc2)CC1 [Levocetirizine, levocetirizine]","SARS-CoV-2 Positive Test Result, percentage of patients (infection rate)",SARS-CoV-2,15.38%
same,fluorescence signal (ACE2 activity) upon further addition of drug,Human recombinant ACE2,further decreased
same,spike protein in the cell lysate (western blot),VERO-E6 cells,no spike protein
